Experimental data: US10508085B2, “Compounds and methods for IDO and TDO modulation, and indications therefor” (Plexxikon Inc., priority 2016, dated 2019)

What was measured:
[1] = target: T1, human IDO (IDO1-expressing HEK293 cells) (Homo sapiens, UniProt P14902); assay: Cell based kynurenine assay, IDO1-expressing HEK293 cell clones; conditions: IDO1-expressing HEK293 cells, 24 hours, geometric mean; read-out: HEK293 IDO1 Kynurenine GMean IC50 (μM) (Cellular Assay)
T1 construct: expressed in transfected cells
Method in brief: (§1)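 Kynurenine in culture supernatant read after 24 h compound exposure of HEK293 cells stably expressing human IDO1 or TDO. IC50 from nonlinear regression of % inhibition relative to 0.2% DMSO cell (high) and media-only (low) controls.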

[2] = target: T2, human TDO (TDO-expressing HEK293 cells) (Homo sapiens, UniProt P48775); assay: Cell based kynurenine assay, TDO-expressing HEK293 cell clones; conditions: TDO-expressing HEK293 cells, 24 hours, geometric mean; read-out: HEK293 TDO Kynurenine GMean IC50 (μM) (Cellular Assay)
T2 construct: expressed in transfected cells
Method in brief: as §1

[3] = target: T3, Human Tryptophan 2,3-dioxygenase (TDO) (Homo sapiens, UniProt P48775); assay: Human TDO enzymatic assay (kynurenine level); format: biochemical; conditions: 1 nM TDO, 350 μM L-Trp; geometric mean; read-out: TDO GMean: IC50 (μM) (Biochemical Assay)
T3 construct: His tag (N); made in house; host or cells: E. coli
Method in brief: (§2)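 Kynurenine formed is measured after TCA quench and 50 °C hydrolysis, with % inhibition against full-reaction and no-enzyme controls (5% DMSO). IDO: 6 nM enzyme, 10 μM L-Trp, 5 μM methylene blue, 20 min; TDO: 1 nM, 350 μM L-Trp, 0.4 μM methylene blue, 70 min; both pH 6.5, room temp, E. coli-expressed His-tagged.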

[4] = target: T4, Human Indoleamine 2,3-dioxygenase (IDO) (Homo sapiens, UniProt P14902); assay: Human IDO enzymatic assay (kynurenine level); format: biochemical; conditions: 6 nM IDO, 10 μM L-Trp; geometric mean; read-out: IDO1 GMean: IC50 (μM) (Biochemical Assay)
T4 construct: His tag (N); made in house; host or cells: E. coli
Method in brief: as §2

T4 sequence (P14902 whole entry): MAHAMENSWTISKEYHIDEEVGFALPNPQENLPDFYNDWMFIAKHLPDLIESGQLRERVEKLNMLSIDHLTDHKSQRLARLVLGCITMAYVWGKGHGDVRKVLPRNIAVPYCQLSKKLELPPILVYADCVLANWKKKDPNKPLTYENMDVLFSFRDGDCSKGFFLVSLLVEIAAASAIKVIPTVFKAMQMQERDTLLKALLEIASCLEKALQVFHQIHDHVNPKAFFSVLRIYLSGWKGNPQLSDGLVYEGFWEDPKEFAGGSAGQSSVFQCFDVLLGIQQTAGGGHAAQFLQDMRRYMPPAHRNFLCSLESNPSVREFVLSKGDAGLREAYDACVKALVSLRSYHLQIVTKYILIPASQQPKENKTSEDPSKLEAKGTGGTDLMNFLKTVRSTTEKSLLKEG
T1 sequence (P14902 whole entry): as above
T2 sequence (P48775 whole entry): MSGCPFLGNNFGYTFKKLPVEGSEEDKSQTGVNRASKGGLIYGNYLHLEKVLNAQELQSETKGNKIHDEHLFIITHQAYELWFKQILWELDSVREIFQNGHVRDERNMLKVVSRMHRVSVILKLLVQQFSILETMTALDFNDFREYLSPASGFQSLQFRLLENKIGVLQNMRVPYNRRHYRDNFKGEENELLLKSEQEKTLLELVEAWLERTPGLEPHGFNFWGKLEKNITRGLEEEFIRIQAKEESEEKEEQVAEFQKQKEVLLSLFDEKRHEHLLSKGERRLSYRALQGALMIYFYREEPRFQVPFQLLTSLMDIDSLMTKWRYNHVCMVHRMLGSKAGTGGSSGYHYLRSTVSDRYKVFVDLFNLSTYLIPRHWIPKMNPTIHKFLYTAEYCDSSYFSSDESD
T3 sequence (P48775 whole entry): as above

IC50 [1] [µM] | IC50 [2] [µM] | IC50 [3] [µM] | IC50 [4] [µM] | SMILES
> 10 | 0.0001 to 10 | 0.0001 to 10 | 0.0001 to 10 | CC(C)NC(=O)N1CCC(C(C)(C)[C@@H](O)c2cc(Cl)cc3cn[nH]c23)CC1 [Compound P-0429, (R)-4-(1-(5-chloro-1H-indazol-7-yl)-1-hydroxy-2-methylpropan-2-yl)-N-isopropylpiperidine-1-carboxamide]
0.0001 to 10 | 0.0001 to 10 | 0.0001 to 10 | 0.0001 to 10 | CC(C)(C1CCN(C(=O)Nc2cccnc2)CC1)[C@@H](O)c1cc(Cl)cc2cn[nH]c12 [Compound P-0430, (R)-4-(1-(5-chloro-1H-indazol-7-yl)-1-hydroxy-2-methylpropan-2-yl)-N-(pyridin-3-yl)piperidine-1-carboxamide]
0.0001 to 10 | 0.0001 to 10 | 0.0001 to 10 | 10 to 100 | CC(C)(C1CCN(C(=O)Nc2ccccc2)CC1)[C@@H](O)c1cc(Cl)cc2cn[nH]c12 [Compound P-0431, (R)-4-(1-(5-chloro-1H-indazol-7-yl)-1-hydroxy-2-methylpropan-2-yl)-N-phenylpiperidine-1-carboxamide]
> 10 | 0.0001 to 10 | 0.0001 to 10 | 0.0001 to 10 | CC(C)(C1CCN(C(=O)Nc2ccccc2Cl)CC1)[C@@H](O)c1cc(Cl)cc2cn[nH]c12 [Compound P-0432, (R)-4-(1-(5-chloro-1H-indazol-7-yl)-1-hydroxy-2-methylpropan-2-yl)-N-(2-chlorophenyl) piperidine-1-carboxamide]
0.0001 to 10 | 0.0001 to 10 | 0.0001 to 10 | > 200 | CC(C)(C1CCN(C(=O)Nc2ccc(Cl)cc2)CC1)[C@@H](O)c1cc(Cl)cc2cn[nH]c12 [Compound P-0433, (R)-4-(1-(5-chloro-1H-indazol-7-yl)-1-hydroxy-2-methylpropan-2-yl)-N-(4-chlorophenyl) piperidine-1-carboxamide]
0.0001 to 10 | 0.0001 to 10 | 0.0001 to 10 | 10 to 100 | CC(C)(C1CCN(C(=O)Nc2cccc(F)c2)CC1)[C@@H](O)c1cc(Cl)cc2cn[nH]c12 [Compound P-0434, (R)-4-(1-(5-chloro-1H-indazol-7-yl)-1-hydroxy-2-methylpropan-2-yl)-N-(3-fluorophenyl) piperidine-1-carboxamide]
0.0001 to 10 | 0.0001 to 10 | 0.0001 to 10 | 0.0001 to 10 | COCC(=O)N1CCC(C(C)(C)[C@@H](O)c2cc(Cl)cc3cn[nH]c23)CC1 [Compound P-0435, (R)-1-(4-(1-(5-chloro-1H-indazol-7-yl)-1-hydroxy-2-methylpropan-2-yl)piperidin-1-yl)-2-methoxyethan-1-one]
0.0001 to 10 | 0.0001 to 10 | 0.0001 to 10 | 0.0001 to 10 | CC(C)(C1CCN(C(=O)CC#N)CC1)[C@@H](O)c1cc(Cl)cc2cn[nH]c12 [Compound P-0436, (R)-3-(4-(1-(5-chloro-1H-indazol-7-yl)-1-hydroxy-2-methylpropan-2-yl)piperidin-1-yl)-3-oxopropanenitrile]
> 10 | > 10 | 0.0001 to 10 | 0.0001 to 10 | CC(C)(C1CCN(C(=O)Nc2ccccc2C(F)(F)F)CC1)[C@@H](O)c1cc(Cl)cc2cn[nH]c12 [Compound P-0437, (R)-4-(1-(5-chloro-1H-indazol-7-yl)-1-hydroxy-2-methylpropan-2-yl)-N-(2-(trifluoromethyl)phenyl)piperidine-1-carboxamide]
0.0001 to 10 | 0.0001 to 10 | 0.0001 to 10 | 0.0001 to 10 | CC(C)(C(O)c1cc(Cl)cc2cn[nH]c12)[C@H]1C[C@H]2CC[C@@H](C1)N2C(=O)NCC(F)(F)F (stereo partly drawn) [Compound P-0438, (1R,3r,5S)-3-(1-(5-chloro-1H-indazol-7-yl)-1-hydroxy-2-methylpropan-2-yl)-N-(2,2,2-trifluoroethyl)-8-azabicyclo[3.2.1] octane-8-carboxamide]
